Laboratory results taken from ChEMBL document CHEMBL1201862, “PubChem BioAssay data set” (2004).
One block for each molecule: values may come before it. Active and inactive are the calls of the source.

How the values were obtained:
[1] = miR-122 activators in hepatoma reporter cells, dose response, cell-based, Huh7 psiCHECK-miR122, Renilla luciferase, cherry-picked (AID 651956); type: functional;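 note: huh7 hepatoma cells stably carrying a psiCHECK-2 miR-122 sensor plasmid; renilla luciferase signal reporting endogenous miR-122 activity after 48 h compound exposure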
[2] = biological target: T1, Low molecular weight phosphotyrosine protein phosphatase (Homo sapiens, UniProt P24666); type: functional; conditions: read-out: IC50_Mean
T1 sequence (P24666 whole entry): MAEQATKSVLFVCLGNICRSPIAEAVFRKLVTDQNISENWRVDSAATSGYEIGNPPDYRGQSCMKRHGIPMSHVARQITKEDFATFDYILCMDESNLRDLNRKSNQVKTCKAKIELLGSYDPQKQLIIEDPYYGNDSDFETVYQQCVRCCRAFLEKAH

[3] = biological target: T2, Voltage-gated N-type calcium channel alpha-1B subunit/Amyloid beta A4 precursor protein-binding family A member 1 (Homo sapiens, UniProt Q00975+Q02410); type: protein assay
T2 sequence (Q00975 whole entry): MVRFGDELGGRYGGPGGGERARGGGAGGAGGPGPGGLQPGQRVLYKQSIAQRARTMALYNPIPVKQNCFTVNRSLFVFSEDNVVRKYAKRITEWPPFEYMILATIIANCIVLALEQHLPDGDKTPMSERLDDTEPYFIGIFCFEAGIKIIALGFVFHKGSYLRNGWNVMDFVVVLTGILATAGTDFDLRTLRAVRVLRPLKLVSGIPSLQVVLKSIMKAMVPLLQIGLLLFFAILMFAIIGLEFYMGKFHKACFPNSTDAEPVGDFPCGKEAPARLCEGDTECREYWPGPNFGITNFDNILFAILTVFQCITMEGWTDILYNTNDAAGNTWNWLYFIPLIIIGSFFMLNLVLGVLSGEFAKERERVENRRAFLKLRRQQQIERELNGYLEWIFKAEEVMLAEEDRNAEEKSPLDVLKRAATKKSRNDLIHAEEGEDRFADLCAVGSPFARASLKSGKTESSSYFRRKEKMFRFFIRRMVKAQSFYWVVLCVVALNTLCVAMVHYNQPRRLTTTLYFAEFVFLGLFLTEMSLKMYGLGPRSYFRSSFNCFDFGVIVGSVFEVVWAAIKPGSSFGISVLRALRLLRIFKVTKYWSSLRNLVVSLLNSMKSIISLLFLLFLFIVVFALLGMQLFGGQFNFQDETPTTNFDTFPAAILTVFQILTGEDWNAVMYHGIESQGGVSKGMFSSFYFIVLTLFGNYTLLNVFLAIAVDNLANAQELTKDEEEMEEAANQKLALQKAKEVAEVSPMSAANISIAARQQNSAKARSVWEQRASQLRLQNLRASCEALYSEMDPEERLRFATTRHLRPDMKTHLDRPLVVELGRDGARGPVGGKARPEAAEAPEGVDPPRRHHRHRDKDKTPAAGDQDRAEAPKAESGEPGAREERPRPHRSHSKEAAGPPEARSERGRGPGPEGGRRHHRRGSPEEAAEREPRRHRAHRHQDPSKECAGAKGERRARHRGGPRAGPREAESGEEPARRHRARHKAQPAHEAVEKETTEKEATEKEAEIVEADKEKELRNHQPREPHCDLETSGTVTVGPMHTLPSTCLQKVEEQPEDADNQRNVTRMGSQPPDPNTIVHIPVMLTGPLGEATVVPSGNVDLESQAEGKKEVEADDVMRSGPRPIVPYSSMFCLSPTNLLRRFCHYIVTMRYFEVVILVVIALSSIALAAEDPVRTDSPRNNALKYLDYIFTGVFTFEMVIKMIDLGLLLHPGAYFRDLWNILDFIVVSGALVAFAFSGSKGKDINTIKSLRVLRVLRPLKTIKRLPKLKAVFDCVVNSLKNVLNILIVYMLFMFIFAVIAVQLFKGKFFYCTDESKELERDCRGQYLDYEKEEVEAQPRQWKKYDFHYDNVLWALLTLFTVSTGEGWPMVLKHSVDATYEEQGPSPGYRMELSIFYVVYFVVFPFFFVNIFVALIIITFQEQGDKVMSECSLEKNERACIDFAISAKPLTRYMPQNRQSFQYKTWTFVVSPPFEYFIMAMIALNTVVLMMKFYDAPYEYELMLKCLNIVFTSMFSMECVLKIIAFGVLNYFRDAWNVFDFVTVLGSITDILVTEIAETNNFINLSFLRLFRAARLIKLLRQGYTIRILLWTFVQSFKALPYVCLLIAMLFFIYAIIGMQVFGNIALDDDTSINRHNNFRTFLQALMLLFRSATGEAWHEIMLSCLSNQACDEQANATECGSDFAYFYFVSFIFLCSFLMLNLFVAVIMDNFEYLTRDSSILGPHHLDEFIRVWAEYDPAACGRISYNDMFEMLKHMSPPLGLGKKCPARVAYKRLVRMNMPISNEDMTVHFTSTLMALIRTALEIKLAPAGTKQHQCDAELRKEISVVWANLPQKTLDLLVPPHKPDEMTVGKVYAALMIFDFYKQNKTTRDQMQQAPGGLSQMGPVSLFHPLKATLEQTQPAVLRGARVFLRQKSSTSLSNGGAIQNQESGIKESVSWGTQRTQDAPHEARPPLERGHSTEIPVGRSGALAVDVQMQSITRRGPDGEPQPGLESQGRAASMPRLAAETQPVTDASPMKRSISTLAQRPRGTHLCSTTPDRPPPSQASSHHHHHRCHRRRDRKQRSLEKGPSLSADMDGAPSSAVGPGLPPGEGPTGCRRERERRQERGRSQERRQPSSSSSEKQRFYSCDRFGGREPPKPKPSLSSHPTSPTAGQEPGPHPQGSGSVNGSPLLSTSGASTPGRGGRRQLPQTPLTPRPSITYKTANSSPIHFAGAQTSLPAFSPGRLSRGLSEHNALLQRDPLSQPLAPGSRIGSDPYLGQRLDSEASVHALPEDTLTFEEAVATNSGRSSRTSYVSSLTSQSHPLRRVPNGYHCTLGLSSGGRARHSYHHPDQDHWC
T2 sequence (Q02410 whole entry): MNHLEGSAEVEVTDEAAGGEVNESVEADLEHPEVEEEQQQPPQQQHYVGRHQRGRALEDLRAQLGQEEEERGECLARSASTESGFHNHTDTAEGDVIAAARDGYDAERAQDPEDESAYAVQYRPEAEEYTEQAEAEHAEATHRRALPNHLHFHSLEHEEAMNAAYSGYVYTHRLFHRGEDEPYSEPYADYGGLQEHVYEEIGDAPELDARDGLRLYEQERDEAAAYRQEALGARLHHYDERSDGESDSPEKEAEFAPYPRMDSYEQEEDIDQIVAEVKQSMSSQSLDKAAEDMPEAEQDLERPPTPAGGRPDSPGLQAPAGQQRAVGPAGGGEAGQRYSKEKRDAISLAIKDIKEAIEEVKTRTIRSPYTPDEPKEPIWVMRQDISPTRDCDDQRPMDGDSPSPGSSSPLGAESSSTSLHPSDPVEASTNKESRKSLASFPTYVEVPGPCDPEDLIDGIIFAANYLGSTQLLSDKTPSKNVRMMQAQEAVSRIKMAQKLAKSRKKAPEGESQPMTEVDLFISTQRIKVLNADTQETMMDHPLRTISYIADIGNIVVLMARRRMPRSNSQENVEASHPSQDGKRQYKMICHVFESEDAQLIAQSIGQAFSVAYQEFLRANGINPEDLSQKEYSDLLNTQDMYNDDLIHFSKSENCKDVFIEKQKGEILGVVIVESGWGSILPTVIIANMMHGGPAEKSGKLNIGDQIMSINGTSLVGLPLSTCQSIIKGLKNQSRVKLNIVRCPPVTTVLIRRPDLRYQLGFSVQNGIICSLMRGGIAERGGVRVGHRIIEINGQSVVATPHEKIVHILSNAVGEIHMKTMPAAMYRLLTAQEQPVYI

[4] = biological target: T2, Voltage-gated N-type calcium channel alpha-1B subunit/Amyloid beta A4 precursor protein-binding family A member 1; type: protein assay; remark: listed apart in the source
[5] = biological target: T1, Low molecular weight phosphotyrosine protein phosphatase; type: functional; conditions: read-out: IC50_Mean; remark: listed apart in the source
[6] = biological target: T3, Rac GTPase-activating protein 1 (Homo sapiens, UniProt Q9H0H5); test: MgcRacGAP GTPase-activating activity inhibitors, confirmation, biochemical, ADP Hunter fluorescence, primary and confirmatory (AID 624330); type: functional
T3 sequence (Q9H0H5 whole entry): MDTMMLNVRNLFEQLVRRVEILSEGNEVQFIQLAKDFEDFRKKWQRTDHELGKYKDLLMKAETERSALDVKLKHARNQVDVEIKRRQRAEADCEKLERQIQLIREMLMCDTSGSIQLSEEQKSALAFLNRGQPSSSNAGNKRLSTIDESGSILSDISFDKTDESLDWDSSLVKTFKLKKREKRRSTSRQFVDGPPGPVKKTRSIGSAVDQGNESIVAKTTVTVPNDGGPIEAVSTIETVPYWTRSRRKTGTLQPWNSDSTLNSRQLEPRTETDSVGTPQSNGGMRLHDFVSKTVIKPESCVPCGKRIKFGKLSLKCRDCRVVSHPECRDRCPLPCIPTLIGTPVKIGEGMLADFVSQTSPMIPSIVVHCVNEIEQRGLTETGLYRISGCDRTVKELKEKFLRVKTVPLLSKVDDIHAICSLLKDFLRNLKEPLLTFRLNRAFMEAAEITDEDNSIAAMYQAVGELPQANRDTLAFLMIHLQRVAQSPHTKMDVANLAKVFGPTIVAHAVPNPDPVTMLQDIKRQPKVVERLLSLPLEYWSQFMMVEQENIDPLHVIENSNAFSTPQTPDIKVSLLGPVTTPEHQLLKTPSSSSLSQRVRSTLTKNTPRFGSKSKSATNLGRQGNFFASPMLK

[7] = tested on: INS1; test: beta cell apoptosis inhibitors, cytokine rescue, dose response, luminescence, retest (AID 449756); type: functional, cell-based; conditions: Rattus norvegicus;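 note: cell death triggered by IL-1 beta plus TNF-alpha plus IFN-gamma mixture; protective hits raise ATP signal compared with cytokine alone wells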
[8] = HeLa cell cytotoxicity, dose response, cytotoxicity control for MgcRacGAP inhibitor project (AID 624300); type: functional
[9] = biological target: T4, Carboxy-terminal domain RNA polymerase II polypeptide A small phosphatase 1 (Homo sapiens, UniProt Q9GZU7); test: inhibitors of CTDSP1, concentration-response testing, biochemical assay, absorbance-based, actives from ultra-high-throughput screening (AID 540297); type: functional
T4 sequence (Q9GZU7 whole entry): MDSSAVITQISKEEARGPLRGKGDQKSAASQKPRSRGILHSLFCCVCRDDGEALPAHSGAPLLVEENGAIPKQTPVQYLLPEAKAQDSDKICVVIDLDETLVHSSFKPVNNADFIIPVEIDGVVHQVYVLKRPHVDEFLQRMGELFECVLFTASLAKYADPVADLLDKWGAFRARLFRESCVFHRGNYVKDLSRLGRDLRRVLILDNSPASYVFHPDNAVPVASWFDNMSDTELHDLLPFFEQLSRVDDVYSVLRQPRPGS

[10] = biological target: T5, Tyrosine-protein phosphatase non-receptor type 5 (Homo sapiens, UniProt P54829); test: STEP phosphatase inhibitors, confirmation, biochemical, fluorescence intensity, uHTS hits (AID 602372); type: functional; conditions: read-out: IC50_Mean
T5 sequence (P54829 whole entry): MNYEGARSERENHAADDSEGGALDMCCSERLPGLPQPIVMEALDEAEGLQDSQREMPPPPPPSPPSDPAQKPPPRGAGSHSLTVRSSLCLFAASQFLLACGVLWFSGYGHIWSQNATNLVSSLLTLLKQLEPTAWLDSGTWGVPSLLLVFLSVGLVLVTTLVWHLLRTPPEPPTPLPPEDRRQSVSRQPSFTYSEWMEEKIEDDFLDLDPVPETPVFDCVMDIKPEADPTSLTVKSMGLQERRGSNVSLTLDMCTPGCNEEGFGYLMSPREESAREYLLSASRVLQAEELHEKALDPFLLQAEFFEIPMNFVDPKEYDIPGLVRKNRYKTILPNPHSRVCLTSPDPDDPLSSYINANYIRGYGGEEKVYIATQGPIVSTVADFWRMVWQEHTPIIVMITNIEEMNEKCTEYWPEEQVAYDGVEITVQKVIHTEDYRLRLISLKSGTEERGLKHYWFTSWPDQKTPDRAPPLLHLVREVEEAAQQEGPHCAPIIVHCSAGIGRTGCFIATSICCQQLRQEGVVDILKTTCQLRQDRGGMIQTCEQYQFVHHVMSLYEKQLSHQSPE

[11] = biological target: T6, Tyrosine-protein phosphatase non-receptor type 11 (Homo sapiens, UniProt Q06124); test: SHP2 phosphatase inhibition, dose response, selectivity assay for STEP inhibitor project, biochemical (AID 602367); type: functional; conditions: read-out: IC50_Mean
T6 sequence (Q06124 whole entry): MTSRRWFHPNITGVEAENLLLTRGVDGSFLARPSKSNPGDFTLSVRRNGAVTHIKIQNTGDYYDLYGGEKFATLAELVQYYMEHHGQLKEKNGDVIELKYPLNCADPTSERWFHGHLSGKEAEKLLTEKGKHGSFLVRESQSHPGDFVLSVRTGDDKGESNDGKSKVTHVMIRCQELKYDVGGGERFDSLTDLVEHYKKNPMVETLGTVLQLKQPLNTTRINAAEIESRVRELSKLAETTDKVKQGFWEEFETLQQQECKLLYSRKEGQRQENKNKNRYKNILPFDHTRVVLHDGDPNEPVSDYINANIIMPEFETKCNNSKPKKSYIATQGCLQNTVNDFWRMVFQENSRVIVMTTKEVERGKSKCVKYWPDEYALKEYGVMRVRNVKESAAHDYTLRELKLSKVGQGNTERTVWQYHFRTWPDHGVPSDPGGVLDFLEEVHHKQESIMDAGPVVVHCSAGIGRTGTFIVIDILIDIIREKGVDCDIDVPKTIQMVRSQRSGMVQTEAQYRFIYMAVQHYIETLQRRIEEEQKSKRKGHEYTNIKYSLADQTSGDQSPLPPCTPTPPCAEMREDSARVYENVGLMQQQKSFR

[12] = biological target: Dual specificity protein phosphatase 3 (Homo sapiens, UniProt P51452); test: VHR phosphatase inhibition, dose response, selectivity assay for STEP inhibitor project, biochemical (AID 602374); type: functional; conditions: read-out: IC50_Mean
Chain of Dual specificity protein phosphatase 3 (P51452 whole entry): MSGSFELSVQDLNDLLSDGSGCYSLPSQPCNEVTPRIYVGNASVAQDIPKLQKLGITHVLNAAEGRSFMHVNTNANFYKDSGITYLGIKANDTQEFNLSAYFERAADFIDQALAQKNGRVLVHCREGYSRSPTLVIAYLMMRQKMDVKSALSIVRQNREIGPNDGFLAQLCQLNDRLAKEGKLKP

Structure (SMILES): C[C@@H]1CN([C@H](C)CO)S(=O)(=O)c2ccc(C#CC3(O)CCCC3)cc2O[C@@H]1CN(C)C(=O)c1cccnc1
AC50 [1]: 9.98 µM (active)

Structure (SMILES): COc1ccc(Br)cc1CN1CCN(Cc2c[nH]c3ccccc23)CC1
IC50 [6]: 86 µM (active) | AC50 [7]: 6.6 µM (active) | CC50 [8]: 79.4 µM (active)

The remaining lines, values ahead:

IC50 [2]: 9.46 µM (active) | IC50 [3]: 13.1 µM (active) | IC50 [4]: > 50 µM (inactive) | IC50 [5]: 6.48 µM (active)
Structure (SMILES): CCOc1cc(/C=C(/C#N)C(=O)Nc2ccc(OC)cc2)ccc1OCc1ccc(C(=O)O)cc1

IC50 [2]: 1.82 µM (active) | IC50 [5]: 6.29 µM (active) | IC50 [9]: 1.8 µM (active)
Structure (SMILES): O=C(N/N=C/c1ccc(OC(=O)c2ccc3c(c2)OCO3)cc1)c1cncc(Br)c1

IC50 [10]: 36.4 µM (inactive) | IC50 [11]: 5.36 µM (active) | IC50 [12]: 3.9 µM (active) | IC50 [9]: 4.72 µM (active)
Structure (SMILES): Cc1c(CC(=O)NCCCCCC(=O)O)c(=O)oc2c(C)c3oc4c(c3cc12)CCCC4
